The source of these data is PMC8000724, “Trans-Epithelial Transport, Metabolism, and Biological Activity Assessment of the Multi-Target Lupin Peptide [sequence] (P5) and Its Metabolite [sequence] (P5-Met)” (Nutrients, 2021).

Series [1] deals with differentiated Caco-2 cells. Description: Trans-epithelial transport across differentiated Caco-2 cell monolayer. It is filed as in vitro ADME, human. The following applies: for Amount in the BL compartment after 30 min: alone, 500 μM in AP, Caco-2 AP to BL. The method, then:
Human intestinal Caco-2 cells, obtained from INSERM (Paris, France), where cultured according to a published protocol. For differentiation, they were seeded on polycarbonate filters, 12 mm diameter, 0.4 µm pore diameter (Transwell, Corning Inc., Lowell, MA, US) at a 3.5 × 10^5 cells/cm^2 density in complete medium supplemented with 10% FBS in both AP and BL compartments for 2 d to allow the formation of a confluent cell monolayer. Starting from day three after seeding, cells were transferred to FBS-free medium in both compartments, supplemented with ITS (final concentration 10 mg/L insulin (I), 5.5 mg/L transferrin (T), 6.7 μg/L sodium selenite (S); GIBCO-Invitrogen, San Giuliano Milanese, Italy) only in the basolateral (BL) compartment, and allowed to differentiate for 18–21 days with regular medium changes three times weekly.
The transepithelial electrical resistance (TEER) of differentiated Caco-2 cells was measured at 37 °C using the voltmeter apparatus Millicell (Millipore Co., Billerica, MA, USA), immediately before and at the end of the transport experiments. In addition, at the end of transport experiments, cells were incubated from the AP side with 1 mM phenol-red in PBS containing Ca^++ (0.9 mM) and Mg^++ (0.5 mM) for 1 h at 37 °C, to monitor the paracellular permeability of the cell monolayer. The BL solutions were then collected and NaOH (70 µL, 0.1 N) was added before reading the absorbance at 560 nm by a microplate reader Synergy H1 from Biotek (Winooski, VT, USA). Phenol-red passage was quantified using a standard phenol-red curve. Only filters showing TEER values and phenol red passages similar to untreated control cells were considered for peptide transport analysis.
Prior to experiments, the cell monolayer integrity and differentiation were checked by TEER measurement as described in detail above. Peptide trans-epithelial passage was assayed in differentiated Caco-2 cells in transport buffer solution (137 mM NaCl, 5.36 mM KCl, 1.26 mM CaCl2, and 1.1 mM MgCl2, 5.5 mM glucose) according to previously described conditions. In order to reproduce the pH conditions existing in vivo in the small intestinal mucosa, the apical (AP) solutions were maintained at pH 6.0 (buffered with 10 mM morpholinoethane sulfonic acid), and the basolateral (BL)solutions were maintained at pH 7.4 (buffered with 10 mM […]). Prior to transport experiments, cells were washed twice with 500 µL PBS containing Ca^++ and Mg^++. Peptide transportation by mature Caco-2 cells was assayed by loading the AP compartment with P5 alone, in mixture with […] (P3) and […] (P7), and/or P5-met (500 μM) in the AP transport solution (500 µL) and the BL compartment with the BL transport solution (700 µL). The plates were incubated at 37 °C and the BL solutions were collected at different time points (i.e., 15, 30, 60, 90, and 120 min) and replaced with fresh solutions pre-warmed at 37 °C. All BL and AP solutions collected at the end of the transport experiment were stored at −80 °C prior to analysis. Three independent transport experiments were performed, each in duplicate. In order to assess the involvement of transcytotic process in peptides passage, parallel transport experiments were performed in the presence of 500 nM wortmannin in both the AP and BL compartment, over 60 min incubation time.
The medium collected at the end of transport experiments from AP and BL chambers (500 µL and 700 µL, respectively) were freeze-dried and residues were solubilized in HPLC water (100 µL). Samples were desalted with C18 resin ZipTip by using 80% ACN, 0.1% FA as eluent (Millipore Corporation, Bedford, MA, USA). Each sample was lyophilized under speed-vacuum for 5 h at 30°C and re-dissolved in 50 μL (0.1% formic acid), before MS analysis. Purified BL samples were analyzed on a SL IT mass spectrometer interfaced with a HPLC- Chip Cube source (Agilent Technologies, Palo Alto, CA, USA). […]

The target of series [2] is T1, HMGCoAR (catalytic domain) (Homo sapiens, UniProt P04035).
T1 construct: finally the HMGCoAR (catalytic domain) (2 µL); purchased Sigma-Aldrich
T1 sequence (P04035 340-888 limits assumed): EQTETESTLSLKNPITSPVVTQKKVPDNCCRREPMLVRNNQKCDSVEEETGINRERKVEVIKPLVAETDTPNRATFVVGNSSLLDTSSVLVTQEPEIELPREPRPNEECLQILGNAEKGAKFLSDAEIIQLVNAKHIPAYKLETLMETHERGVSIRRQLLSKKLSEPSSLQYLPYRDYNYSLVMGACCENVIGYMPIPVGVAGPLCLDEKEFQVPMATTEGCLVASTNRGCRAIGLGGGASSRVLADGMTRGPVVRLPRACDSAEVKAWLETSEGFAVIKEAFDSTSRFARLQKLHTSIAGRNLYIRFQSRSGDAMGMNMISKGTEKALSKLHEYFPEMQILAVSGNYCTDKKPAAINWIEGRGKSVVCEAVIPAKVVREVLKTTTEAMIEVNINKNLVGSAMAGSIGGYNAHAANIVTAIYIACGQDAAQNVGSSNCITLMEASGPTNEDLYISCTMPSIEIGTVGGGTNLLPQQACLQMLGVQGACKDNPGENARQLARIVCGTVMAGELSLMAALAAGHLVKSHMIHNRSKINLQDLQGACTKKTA
Description: HMGCoAR activity assay. Type of series: biochemical. The settings on record: 10-500 µM peptide, 37 °C, NADPH absorbance 340 nm at 0 and 10 min. The method, then: The experiments were carried out following the manufacturer instructions and optimized protocol. The assay buffer, NADPH, substrate solution, and HMGCoAR were provided in the HMGCoAR Assay Kit (Sigma Aldrich SRL, Milan, Italy). The experiments were carried out following the manufacturer instructions at 37 °C. In particular, each reaction (200 µL) was prepared adding the reagents in the following order: 1× assay buffer, a 10–500 µM doses of P5 and P5-met or vehicle (C), the NADPH (4 µL), the substrate solution (12 µL), and finally the HMGCoAR (catalytic domain) (2 µL). Subsequently, the samples were mixed and the absorbance at 340 nm read by the microplate reader Synergy H1 (Winooski, VT, USA) at time 0 and 10 min. The HMGCoAR-dependent oxidation of NADPH and the inhibition properties of peptides were measured by absorbance reduction, which is directly proportional to enzyme activity.

With H-LPKHSDAD-OH [Peptide P5-met], the “Effect of the transcytosis inhibitor wortmannin on transport across Caco-2 cells” value in series [1] (500 nM wortmannin in AP and BL compartments, 60 min, HPLC-Chip MS of BL compartment) is on record as “transported also in the presence of wortmannin”. The “Amount in the BL compartment after 30 min” value in series [1] (AP pH 6.0 / BL pH 7.4, 37 °C, LC-MS/MS MRM, mean ± SD of three independent experiments) turned out to be 0.54 ± 0.02 µg; in series [1] (conversion of the µg value), 0.613 nmol. For the same substance, the IC50 in series [2] came to 175 µM.
